Test results taken from ChEMBL document CHEMBL1138010, “Discovery of highly potent, selective, orally bioavailable, metabotropic glutamate subtype 5 (mGlu5) receptor antagonists devoid of cytochrome P450 1A2 inhibitory activity” (Bioorg Med Chem Lett, 2004).

Columns and labels:
[1] = molecular target: Metabotropic glutamate receptor 5 (Rattus norvegicus) (UniProt P31424); experiment: Antagonistic activity against Metabotropic glutamate receptor 5 in [Ca2+] flux assay using glutamate (10 uM) as agonist; format: functional
[2] = molecular target: Metabotropic glutamate receptor 5 (Rattus norvegicus, UniProt P31424); experiment: Binding affinity towards Metabotropic glutamate receptor was determined by displacing [3H]3-methoxy-5-(pyridin-2-ylethynyl)pyridine from rat cortical membranes
[3] = molecular target: Metabotropic glutamate receptor 5 (Rattus norvegicus) (UniProt P31424); experiment: Percent occupancy of the Metabotropic glutamate receptor 5 by the [3H]3-methoxy-5-(pyridin-2-ylethynyl)pyridine ligand 1 hr post-administration of 10 mg/kg compound ip; format: organism-based; design: dose 10 mg/kg
Cytochrome P450 1A2 = molecular target: T1, Cytochrome P450 1A2 (Homo sapiens, UniProt P05177); experiment: Antagonistic activity against recombinant cytochrome P450 1A2; format: ADME; conditions: recombinant enzyme
T1 sequence (P05177 whole entry): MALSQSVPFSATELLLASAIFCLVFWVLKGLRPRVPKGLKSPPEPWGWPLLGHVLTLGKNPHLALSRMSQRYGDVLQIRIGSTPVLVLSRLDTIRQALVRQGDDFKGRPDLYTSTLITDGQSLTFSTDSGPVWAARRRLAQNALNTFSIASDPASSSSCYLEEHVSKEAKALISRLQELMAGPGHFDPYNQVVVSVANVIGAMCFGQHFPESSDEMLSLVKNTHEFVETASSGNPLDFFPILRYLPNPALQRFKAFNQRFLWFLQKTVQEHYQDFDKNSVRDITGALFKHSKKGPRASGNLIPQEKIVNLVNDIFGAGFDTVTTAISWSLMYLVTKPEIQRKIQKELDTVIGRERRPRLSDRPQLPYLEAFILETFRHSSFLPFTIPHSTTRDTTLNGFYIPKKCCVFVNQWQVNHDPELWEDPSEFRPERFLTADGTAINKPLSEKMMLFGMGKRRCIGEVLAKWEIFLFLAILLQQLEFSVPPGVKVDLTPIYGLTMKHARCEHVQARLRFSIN

Cytochrome P450 2C9 = Cytochrome P450 2C9 (Homo sapiens, UniProt P11712); experiment: Antagonistic activity against recombinant cytochrome P450 2C9; format: ADME; conditions: recombinant enzyme
Cytochrome P450 2D6 = Cytochrome P450 2D6 (Homo sapiens, UniProt P10635); experiment: Antagonistic activity against recombinant cytochrome P450 2D6; format: ADME; conditions: recombinant enzyme
[4] = Oral bioavailability; format: ADME, organism-based; conditions: rat, in vivo
Rattus norvegicus = experiment: Concentration in rat brain measured at 1 hr post-administration of 10 mg/kg ip; format: functional, organism-based; design: dose 10 mg/kg
Cytochrome P450 2C19 = Cytochrome P450 2C19 (Homo sapiens, UniProt P33261); experiment: Antagonistic activity against recombinant cytochrome P450 2C19; format: ADME; conditions: recombinant enzyme
Cytochrome P450 3A4 = Cytochrome P450 3A4 (Homo sapiens, UniProt P08684); experiment: Antagonistic activity against recombinant cytochrome P450 3A4; format: ADME; conditions: recombinant enzyme
[5] = Volume of distribution was determined; format: ADME, organism-based; conditions: rat, in vivo
[6] = Half life was determined; format: ADME; conditions: rat
[7] = Plasma clearance was determined; format: ADME, organism-based; conditions: rat
[8] = Area under the curve was determined; format: ADME; conditions: rat
[9] = Area under the curve after dosing 2 mg/kg iv and 10 mg/kg po; format: ADME, organism-based; conditions: rat, in vivo
[10] = Volume of distribution after dosing 2 mg/kg iv and 10 mg/kg po; format: ADME, organism-based; conditions: rat, in vivo
[11] = Plasma clearance after dosing 2 mg/kg iv and 10 mg/kg po; format: ADME, organism-based; conditions: rat
[12] = Oral bioavailability after dosing 2 mg/kg iv and 10 mg/kg po; format: ADME, organism-based; conditions: rat, in vivo

Chain of Metabotropic glutamate receptor 5 (Rattus norvegicus) (P31424 21-1203 limits assumed): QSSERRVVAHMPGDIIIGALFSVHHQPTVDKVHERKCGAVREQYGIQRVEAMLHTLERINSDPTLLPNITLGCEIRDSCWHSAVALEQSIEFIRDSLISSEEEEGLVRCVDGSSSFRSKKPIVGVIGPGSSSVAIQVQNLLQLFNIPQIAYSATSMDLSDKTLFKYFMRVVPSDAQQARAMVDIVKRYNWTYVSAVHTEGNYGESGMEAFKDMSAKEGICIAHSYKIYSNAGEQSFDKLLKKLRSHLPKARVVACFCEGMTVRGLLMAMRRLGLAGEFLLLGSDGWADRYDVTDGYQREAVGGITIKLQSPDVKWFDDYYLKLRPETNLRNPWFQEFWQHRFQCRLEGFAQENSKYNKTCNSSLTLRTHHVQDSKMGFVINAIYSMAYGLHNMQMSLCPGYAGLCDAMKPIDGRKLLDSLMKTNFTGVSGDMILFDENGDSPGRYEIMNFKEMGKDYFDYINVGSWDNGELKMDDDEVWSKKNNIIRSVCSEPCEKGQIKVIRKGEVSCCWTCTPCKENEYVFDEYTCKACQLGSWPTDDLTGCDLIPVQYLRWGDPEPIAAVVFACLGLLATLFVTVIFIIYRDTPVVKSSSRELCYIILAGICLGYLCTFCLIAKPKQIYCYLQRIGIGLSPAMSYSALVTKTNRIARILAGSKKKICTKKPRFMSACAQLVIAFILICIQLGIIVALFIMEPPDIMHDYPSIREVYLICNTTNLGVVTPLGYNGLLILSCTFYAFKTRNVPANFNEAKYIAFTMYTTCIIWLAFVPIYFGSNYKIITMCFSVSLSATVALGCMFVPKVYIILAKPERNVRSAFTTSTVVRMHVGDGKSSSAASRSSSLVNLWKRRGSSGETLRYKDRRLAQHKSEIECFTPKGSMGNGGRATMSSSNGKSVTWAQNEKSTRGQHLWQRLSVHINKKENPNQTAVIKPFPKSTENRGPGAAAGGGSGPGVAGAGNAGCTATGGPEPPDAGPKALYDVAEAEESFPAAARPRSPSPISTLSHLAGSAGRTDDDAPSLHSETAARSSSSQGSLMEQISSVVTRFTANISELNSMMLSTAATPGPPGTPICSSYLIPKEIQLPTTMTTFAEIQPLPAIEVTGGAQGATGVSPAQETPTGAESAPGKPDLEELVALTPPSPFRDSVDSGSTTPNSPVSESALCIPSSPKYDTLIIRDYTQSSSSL
Chain of Metabotropic glutamate receptor 5 (P31424 whole entry): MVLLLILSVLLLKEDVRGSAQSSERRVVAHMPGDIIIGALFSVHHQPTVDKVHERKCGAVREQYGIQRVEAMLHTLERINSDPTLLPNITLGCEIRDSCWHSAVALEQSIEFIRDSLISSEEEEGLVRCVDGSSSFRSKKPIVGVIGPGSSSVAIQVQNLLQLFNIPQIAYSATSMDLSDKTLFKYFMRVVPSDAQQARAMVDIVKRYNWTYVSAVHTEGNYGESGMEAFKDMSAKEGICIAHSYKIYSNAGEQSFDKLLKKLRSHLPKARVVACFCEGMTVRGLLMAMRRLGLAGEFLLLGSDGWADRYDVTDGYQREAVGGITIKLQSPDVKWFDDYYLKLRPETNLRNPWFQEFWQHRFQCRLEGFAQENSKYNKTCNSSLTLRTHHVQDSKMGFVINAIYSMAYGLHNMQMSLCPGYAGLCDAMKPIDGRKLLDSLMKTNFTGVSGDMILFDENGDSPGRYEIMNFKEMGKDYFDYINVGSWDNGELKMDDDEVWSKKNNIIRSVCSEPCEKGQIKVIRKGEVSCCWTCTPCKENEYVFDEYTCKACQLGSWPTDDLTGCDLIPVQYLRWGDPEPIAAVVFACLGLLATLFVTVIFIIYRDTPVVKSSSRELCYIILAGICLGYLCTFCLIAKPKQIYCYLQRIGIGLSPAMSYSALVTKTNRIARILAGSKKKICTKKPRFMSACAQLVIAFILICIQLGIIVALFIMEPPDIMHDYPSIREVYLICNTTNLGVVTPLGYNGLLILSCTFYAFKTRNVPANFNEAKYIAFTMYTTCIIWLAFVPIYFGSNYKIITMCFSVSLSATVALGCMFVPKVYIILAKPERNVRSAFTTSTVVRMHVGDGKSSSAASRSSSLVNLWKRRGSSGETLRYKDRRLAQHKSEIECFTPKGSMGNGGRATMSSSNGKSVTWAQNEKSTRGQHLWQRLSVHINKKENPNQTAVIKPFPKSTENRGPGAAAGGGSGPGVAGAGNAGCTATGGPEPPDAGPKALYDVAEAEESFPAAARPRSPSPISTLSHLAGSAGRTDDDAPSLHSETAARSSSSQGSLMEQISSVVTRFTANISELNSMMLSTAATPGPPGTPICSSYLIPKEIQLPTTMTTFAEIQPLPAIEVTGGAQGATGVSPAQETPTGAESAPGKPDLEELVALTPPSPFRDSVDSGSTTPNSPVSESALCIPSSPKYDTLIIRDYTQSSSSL
Chain of Cytochrome P450 3A4 (P08684 whole entry): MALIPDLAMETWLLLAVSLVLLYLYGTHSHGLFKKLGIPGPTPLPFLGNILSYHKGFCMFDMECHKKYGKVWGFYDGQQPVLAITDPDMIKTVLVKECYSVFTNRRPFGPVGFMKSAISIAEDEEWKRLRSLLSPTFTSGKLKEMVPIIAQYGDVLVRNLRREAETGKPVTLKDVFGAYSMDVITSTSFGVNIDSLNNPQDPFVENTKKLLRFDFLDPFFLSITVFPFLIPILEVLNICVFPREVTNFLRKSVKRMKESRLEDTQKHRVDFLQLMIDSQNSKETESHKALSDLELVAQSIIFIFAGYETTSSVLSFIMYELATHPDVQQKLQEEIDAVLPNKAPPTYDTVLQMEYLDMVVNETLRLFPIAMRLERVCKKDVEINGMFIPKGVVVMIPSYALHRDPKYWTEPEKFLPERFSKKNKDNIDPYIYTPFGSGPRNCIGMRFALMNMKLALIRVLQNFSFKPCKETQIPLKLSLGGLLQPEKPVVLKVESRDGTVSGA
Chain of Cytochrome P450 2C19 (P33261 whole entry): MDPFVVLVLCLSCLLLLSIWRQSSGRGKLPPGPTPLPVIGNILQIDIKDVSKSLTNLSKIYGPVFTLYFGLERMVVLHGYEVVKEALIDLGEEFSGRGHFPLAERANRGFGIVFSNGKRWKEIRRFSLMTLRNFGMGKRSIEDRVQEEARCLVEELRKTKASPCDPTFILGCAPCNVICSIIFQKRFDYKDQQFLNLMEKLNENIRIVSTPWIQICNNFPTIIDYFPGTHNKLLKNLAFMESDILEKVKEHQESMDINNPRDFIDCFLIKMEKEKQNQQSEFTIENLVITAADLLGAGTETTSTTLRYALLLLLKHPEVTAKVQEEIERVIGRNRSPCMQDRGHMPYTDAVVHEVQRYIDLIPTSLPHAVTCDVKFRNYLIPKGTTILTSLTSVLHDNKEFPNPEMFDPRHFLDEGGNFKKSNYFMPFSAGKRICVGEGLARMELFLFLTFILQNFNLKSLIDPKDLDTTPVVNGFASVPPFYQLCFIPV
Chain of Cytochrome P450 2C9 (P11712 whole entry): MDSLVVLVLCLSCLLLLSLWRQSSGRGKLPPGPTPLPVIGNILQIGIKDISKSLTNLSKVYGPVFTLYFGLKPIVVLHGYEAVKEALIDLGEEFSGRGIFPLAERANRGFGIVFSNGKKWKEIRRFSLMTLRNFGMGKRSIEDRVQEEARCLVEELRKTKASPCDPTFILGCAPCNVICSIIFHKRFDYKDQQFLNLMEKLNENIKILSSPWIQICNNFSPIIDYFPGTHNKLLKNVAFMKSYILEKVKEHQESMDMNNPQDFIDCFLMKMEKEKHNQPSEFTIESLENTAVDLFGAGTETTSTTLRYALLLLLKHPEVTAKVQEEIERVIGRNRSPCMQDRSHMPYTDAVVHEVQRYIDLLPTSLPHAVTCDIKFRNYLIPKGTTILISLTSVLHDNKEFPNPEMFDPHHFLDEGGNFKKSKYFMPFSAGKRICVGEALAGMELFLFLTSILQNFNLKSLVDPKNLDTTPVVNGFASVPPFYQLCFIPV
Chain of Cytochrome P450 2D6 (P10635 whole entry): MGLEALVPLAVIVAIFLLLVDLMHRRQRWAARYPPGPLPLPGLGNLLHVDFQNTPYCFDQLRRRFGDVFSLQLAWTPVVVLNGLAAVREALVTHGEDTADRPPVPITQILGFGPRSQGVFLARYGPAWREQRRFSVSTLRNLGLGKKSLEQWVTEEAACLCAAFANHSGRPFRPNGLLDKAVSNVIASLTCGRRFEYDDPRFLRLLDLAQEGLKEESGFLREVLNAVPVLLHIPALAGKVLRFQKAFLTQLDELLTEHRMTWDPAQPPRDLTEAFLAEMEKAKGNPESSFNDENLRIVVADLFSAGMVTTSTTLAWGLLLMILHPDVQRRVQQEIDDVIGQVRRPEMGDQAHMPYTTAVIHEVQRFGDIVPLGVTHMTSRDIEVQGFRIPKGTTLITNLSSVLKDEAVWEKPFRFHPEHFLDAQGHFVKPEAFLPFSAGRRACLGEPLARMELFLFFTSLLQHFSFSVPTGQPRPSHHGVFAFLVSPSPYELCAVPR

Compound	Activity [1] [nM]	Ki [2] [nM]	Occupancy [3] [%]	Activity (Cytochrome P450 1A2) [µM]	also measured
N#Cc1cc(F)cc(-n2nnc(-c3ncc[nH]3)n2)c1	47	9.3	95	> 14	–
Cc1ccncc1-c1cc(F)cc(-n2nnc(-c3ncc[nH]3)n2)c1	20	3.5	29	3.5	–
Fc1cc(Oc2cccnc2)cc(-n2nnc(-c3ccccn3)n2)c1	6.7	–	90	0.7	–
N#Cc1cccc(-n2nnc(-c3nccs3)n2)c1	142	183	–	1	–
N#Cc1cccc(-n2nnc(-c3ncc[nH]3)n2)c1	77	34	–	> 14	–
N#Cc1cccc(-n2nnc(-c3cc[nH]n3)n2)c1	> 2000	> 2000	–	–	–
Fc1cc(Oc2cccnc2)cc(-n2nnc(-c3ncc[nH]3)n2)c1	9.7	3.2	69	5.1	–

Continued, in another order:

Activity [1] [nM]	Ki [2] [nM]	Occupancy [3] [%]	Activity (Cytochrome P450 1A2) [µM]	Compound	also measured
> 2000	> 2000	–	–	N#Cc1cccc(-n2nnc(-c3c[nH]cn3)n2)c1	–
77	19	97	> 14	Cc1c[nH]c(-c2nnn(-c3cc(F)cc(C#N)c3)n2)n1	Activity (Cytochrome P450 2C9): > 14 µM; Activity (Cytochrome P450 2D6): > 14 µM; bioavailability [4]: 22%; Concentration (Rattus norvegicus): 8.1 µM; Activity (Cytochrome P450 2C19): > 14 µM; Activity (Cytochrome P450 3A4): > 14 µM; Vd [5]: 0.6 L/kg; half-life [6]: 18 min; clearance [7]: 40 mL/min/kg; AUC [8]: 3.4 µM·h
3.9	–	–	2.3	N#Cc1cc(F)cc(-n2nnc(-c3ccccn3)n2)c1	Activity (Cytochrome P450 2C9): > 14 µM; AUC [9]: 9.6 µM·h; Vd [10]: 1.1 L/kg; Activity (Cytochrome P450 2D6): > 14 µM; Concentration (Rattus norvegicus): 9.7 µM; Activity (Cytochrome P450 2C19): > 14 µM; Activity (Cytochrome P450 3A4): > 14 µM; clearance [11]: 15 mL/min/kg; bioavailability [12]: 24%
5.2	1.8	95	0.5	Cc1ccncc1-c1cc(F)cc(-n2nnc(-c3ccccn3)n2)c1	–
148	157	–	1.7	N#Cc1cccc(-n2nnc(-c3cscn3)n2)c1	–
73	102	90	3.8	N#Cc1cccc(-n2nnc(-c3ccccn3)n2)c1	–
